# According to patent US10065972B2, “Bicyclic or tricyclic heterocyclic compound” (MITSUBISHI TANABE PHARMA CORPORATION, priority 2014, dated 2018):
# Molecular target: human recombinant KAT-II (Homo sapiens (Human), UniProt Q8N5Z0)
# Assay: KAT-II inhibitory test
# Type: biochemical
# Details: 3.0 μmol/L kynurenine, 37° C., 1 hr, pH 8.0; kynurenic acid quantified by HPLC
# Method: The compounds described in the above-mentioned Examples were used for the KAT-II inhibitory test.
# Preparation of Human Recombinant KAT-II
# Human recombinant KAT-II was prepared as follows.
# His tag and maltose binding protein tag were added to the N-terminal of a gene encoding human KAT-II (Genbank accession number: AF481738.1), and the obtained gene was incorporated into pET32 (Merck Nihon Millipore), which is an Escherichia coli expression vector. Human recombinant KAT-II produced by BL21(DE3) Escherichia coli (Merck Nihon Millipore, 69450) transformed using the plasmid was purified using an amylose resin column (New England Biolabs, #800-21 L).
# The inhibitory action of the test compound on human recombinant KAT-II was determined by the following method.
# To a reaction mixture (45 μL) containing 3.0 μmol/L kynurenine, 10 μmol/L pyridoxal phosphate, 2.0 ng/μL human recombinant KAT-II, and 150 mmol/L tris(hydroxymethyl)aminomethane-acetate buffer (pH 8.0) was added a 10% dimethyl sulfoxide solution (5 μL) of each test compound prepared, and the mixture was reacted at 37° C. for 1 hr. After the reaction, 50% trichloroacetic acid (5 μL) was added to terminate the reaction.
# The resultant kynurenic acid was quantified as follows by high performance liquid chromatography. An enzyme reaction mixture was separated by an octadecylsilane reversed-phase column (SC-50DS, Eicom Corporation; mobile phase: 250 mmol/L zinc acetate, 50 mmol/L sodium acetate, and 5.0% acetonitrile (pH 6.2)) incubated at 30° C., and kynurenic acid was quantified using a fluorescence detector (RF-20Axs, Shimadzu Corporation) at excitation wavelength 354 nm, detection wavelength 460 nm. The analytical curve was drawn every time by an external standard method. Each test compound was tested by dual measurement at each concentration.
# human recombinant KAT-II, sequence (Q8N5Z0 30-425): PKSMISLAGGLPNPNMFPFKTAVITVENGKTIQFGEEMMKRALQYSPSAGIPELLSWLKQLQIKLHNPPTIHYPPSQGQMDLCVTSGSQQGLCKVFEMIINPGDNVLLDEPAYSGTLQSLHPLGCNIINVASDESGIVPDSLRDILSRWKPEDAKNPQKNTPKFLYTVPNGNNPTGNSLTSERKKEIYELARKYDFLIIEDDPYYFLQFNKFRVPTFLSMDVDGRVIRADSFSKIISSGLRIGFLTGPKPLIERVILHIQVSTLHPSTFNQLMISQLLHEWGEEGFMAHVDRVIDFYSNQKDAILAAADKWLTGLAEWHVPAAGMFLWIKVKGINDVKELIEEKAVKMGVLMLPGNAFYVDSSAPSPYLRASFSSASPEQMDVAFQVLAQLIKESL
row,SMILES,IC50 [nM]
1,"O=C(NCc1ccccc1)[C@H]1CCCN1c1nn2c(=O)c3c(nc2s1)CCCC3 [Example 639, (R)-N-benzyl-1-(5-oxo-6,7,8,9-tetrahydro-5H-[1,3,4]thiadiazolo[2,3-b]quinazolin-2-yl)pyrrolidine-2-carboxamide]",49
2,"Cc1ccc(-c2nc3sc(N4CCC[C@@H]4C(=O)NCc4ccccc4)nc3c(=O)[nH]2)s1 [Example 500, (R)-N-benzyl-1-[5-(5-methylthiophen-2-yl)-7-oxo-6,7-dihydro[1,3]thiazolo[5,4-d]pyrimidin-2-yl]pyrrolidine-2-carboxamide]",41
3,"CC(C)(F)c1[nH]c(=O)c2nc(N3CCC[C@@H]3C(=O)NCc3ccccc3)sc2c1Cl [Example 626, (R)-N-benzyl-1-[7-chloro-6-(2-fluoropropan-2-yl)-4-oxo-4,5-dihydro[1,3]thiazolo[4,5-c]pyridin-2-yl]pyrrolidine-2-carboxamide]",15
4,"CCCc1cc(=O)n2nc(N3CCC[C@@H]3C(=O)NC3(c4ccccc4)CC3)ccc2n1 [Example 718, (R)-1-(4-oxo-2-propyl-4H-pyrimido[1,2-b]pyridazin-7-yl)-N-(1-phenylcyclopropyl)pyrrolidine-2-carboxamide]",310
5,"Cc1cccc(CC(=O)N2CCC[C@@H]2c2nc3c(=O)[nH]c(C4(C(F)(F)F)CC4)nc3s2)c1 [Example 98, 2-{(R)-1-[2-(3-methylphenyl)acetyl]pyrrolidin-2-yl}-5-[1-(trifluoromethyl)cyclopropyl]-6H-[1,3]thiazolo[5,4-d]pyrimidin-7-one]",37
6,"Cc1nc2sc(N3CCC[C@@H]3C(=O)NCc3ccccc3)nn2c(=O)c1-c1ccccc1 [Example 648, (R)-N-benzyl-1-(7-methyl-5-oxo-6-phenyl-5H-[1,3,4]thiadiazolo[3,2-a]pyrimidin-2-yl)pyrrolidine-2-carboxamide]",46
7,"CCCc1cc(=O)n2nc(N3CCCC[C@@H]3C(=O)NCc3ccccc3)sc2n1 [Example 635, (R)-N-benzyl-1-(5-oxo-7-propyl-5H-[1,3,4]thiadiazolo[3,2-a]pyrimidin-2-yl) piperidine-2-carboxamide]",970
8,"O=C(Oc1ccccc1)N1CCC[C@@H]1c1nc2c(=O)[nH]c(C(F)(F)F)cc2s1 [Example 138, (R)-2-(4-oxo-6-trifluoromethyl-4,5-dihydro[1,3]thiazolo[4,5-c]pyridin-2-yl)pyrrolidine-1-carboxylic acid phenyl ester]",390
9,"O=C(NCc1ccccc1)[C@H]1CCCN1c1nc2c(=O)n(N3CCOCC3)c(C(F)(F)F)nc2s1 [Example 253, (R)-N-benzyl-1-[6-(morpholin-4-yl)-7-oxo-5-trifluoromethyl-6,7-dihydro-[1,3]thiazolo[5,4-d]pyrimidin-2-yl]pyrrolidine-2-carboxamide]",89
10,"CCCc1cc(=O)n2nc(N3CCCN3C(=O)Oc3ccccc3)sc2n1 [Example 176, 2-(5-oxo-7-propyl-5H-[1,3,4]thiadiazolo[3,2-a]pyrimidin-2-yl)pyrazolidine-1-carboxylic acid phenyl ester]",520
11,"O=C(Oc1ccccc1)N1CCC[C@@H]1c1nc2c(=O)[nH]c(-c3ccccc3)nc2s1 [Example 65, (R)-2-(7-oxo-5-phenyl-6,7-dihydro[1,3]thiazolo[5,4-d]pyrimidin-2-yl)pyrrolidine-1-carboxylic acid phenyl ester]",25
12,"Cn1c(C2CC2)nc2sc(N3CC(F)(F)C[C@@H]3C(=O)NCc3ccccc3)nc2c1=O [Example 572, (R)-N-benzyl-1-(5-cyclopropyl-6-methyl-7-oxo-6,7-dihydro[1,3]thiazolo[5,4-d]pyrimidin-2-yl)-4,4-difluoropyrrolidine-2-carboxamide]",86

# More lines, now with the values ahead:
row,IC50 [nM],SMILES
1,2200,"CCc1nc2sc(N3CC(F)(F)C[C@@H]3C(=O)NCc3ccccc3)nn2c(=O)c1F [Example 650, (R)-N-benzyl-1-(7-ethyl-6-fluoro-5-oxo-5H-[1,3,4]thiadiazolo[3,2-a]pyrimidin-2-yl)-4,4-difluoropyrrolidine-2-carboxamide]"
2,46,"O=C(Oc1ccccc1)N1CCC[C@@H]1c1nc2c(=O)[nH]c(N3CCCCC3)nc2s1 [Example 107, (R)-2-[7-oxo-5-(piperidin-1-yl)-6,7-dihydro[1,3]thiazolo[5,4-d]pyrimidin-2-yl]pyrrolidine-1-carboxylic acid phenyl ester]"
3,11000,"CCc1nc2sc(N3CCC[C@@H]3C(=O)NCc3ncccn3)nn2c(=O)c1F [Example 684, (R)-1-(7-ethyl-6-fluoro-5-oxo-5H-[1,3,4]thiadiazolo[3,2-a]pyrimidin-2-yl)-N-[(pyrimidin-2-yl)methyl]pyrrolidine-2-carboxamide]"
4,590,"O=C(NCc1ccccc1)[C@H]1CCCN1c1ccc2nc(-c3ccccc3)cc(=O)n2n1 [Example 714, (R)-N-benzyl-1-(4-oxo-2-phenyl-4H-pyrimido[1,2-b]pyridazin-7-yl)pyrrolidine-2-carboxamide]"
5,22,"O=C(NCc1ccccc1)[C@H]1CCCN1c1nc2c(=O)[nH]c(C(F)F)nc2s1 [Example 539, (R)-N-benzyl-1-(5-difluoromethyl-7-oxo-6,7-dihydro[1,3]thiazolo[5,4-d]pyrimidin-2-yl)pyrrolidine-2-carboxamide]"
6,44,"Cc1cc2c(=O)n3nc(N4CCC[C@@H]4C(=O)NCc4ccccc4)sc3nc2s1 [Example 656, (R)-N-benzyl-1-(6-methyl-8-oxo-8H-[1,3,4]thiadiazolo[3,2-a]thieno[2,3-d]pyrimidin-2-yl)pyrrolidine-2-carboxamide]"
7,720,"CC(C)c1cc(=O)n2nc([C@H]3CCCN3C(=O)OCc3ccccc3)sc2n1 [Example 144, (R)-2-[5-oxo-7-(propan-2-yl)-5H-[1,3,4]thiadiazolo[3,2-a]pyrimidin-2-yl]pyrrolidine-1-carboxylic acid benzyl ester]"
8,20,"Cn1c(CN2CCOCC2)nc2sc(N3CCC[C@@H]3C(=O)NCc3ccccc3)nc2c1=O [Example 322, (R)-N-benzyl-1-{6-methyl-5-[(morpholin-4-yl)methyl]-7-oxo-6,7-dihydro[1,3]thiazolo[5,4-d]pyrimidin-2-yl}pyrrolidine-2-carboxamide]"
9,47,"CCOC1(c2cc3sc(N4CCC[C@@H]4C(=O)NCc4ccccc4)nc3c(=O)[nH]2)CC1 [Example 629, (R)-N-benzyl-1-[6-(1-ethoxycyclopropyl)-4-oxo-4,5-dihydro[1,3]thiazolo[4,5-c]pyridin-2-yl]pyrrolidine-2-carboxamide]"
10,170,"CC(C)c1cc(=O)n2nc([C@H]3CCCN3C(=O)NCc3ccccc3Cl)sc2n1 [Example 158, (R)-N-(2-chlorobenzyl)-2-[5-oxo-7-(propan-2-yl)-5H-[1,3,4]thiadiazolo[3,2-a]pyrimidin-2-yl]pyrrolidine-1-carboxamide]"
11,35,"Cn1c(C2(C#N)CC2)nc2sc(N3CCC[C@@H]3C(=O)NCc3ccccc3)nc2c1=O [Example 573, (R)-N-benzyl-1-[5-(1-cyanocyclopropyl)-6-methyl-7-oxo-6,7-dihydro[1,3]thiazolo[5,4-d]pyrimidin-2-yl]pyrrolidine-2-carboxamide]"
12,560,"CCc1nc2sc([C@H]3CCCN3C(=O)N[C@@H]3CCc4ccccc43)nc2c(=O)n1C [Example 13, (R)-5-ethyl-2-{1-[((R)-indan-1-yl)aminocarbonyl]pyrrolidin-2-yl}-6-methyl-6,7-dihydro[1,3]thiazolo[5,4-d]pyrimidin-7-one]"
13,72,"CC1(Cn2c(C(F)(F)F)nc3sc(N4CCC[C@@H]4C(=O)NCc4ccccc4)nc3c2=O)COC1 [Example 227, (R)-N-benzyl-1-{6-[(3-methyloxetan-3-yl)methyl]-7-oxo-5-trifluoromethyl-6,7-dihydro[1,3]thiazolo[5,4-d]pyrimidin-2-yl}pyrrolidine-2-carboxamide]"
14,1800,"Cc1nc2sc([C@H]3CCCN3C(=O)N[C@H](C)c3ccccc3)nn2c(=O)c1C [Example 171, (R)-2-(6,7-dimethyl-5-oxo-5H-[1,3,4]thiadiazolo[3,2-a]pyrimidin-2-yl)-N-((R)-1-phenylethyl)pyrrolidine-1-carboxamide]"
15,73,"CC1(Oc2nc3sc([C@H]4CCCN4C(=O)Oc4ccccc4)nc3c(=O)[nH]2)CC1 [Example 104, (R)-2-[5-(1-methylcyclopropoxy)-7-oxo-6,7-dihydro[1,3]thiazolo[5,4-d]pyrimidin-2-yl]pyrrolidine-1-carboxylic acid phenyl ester]"
16,62,"CC(C)c1nc2ccc(N3CCC[C@@H]3C(=O)NCc3ccccc3)nc2c(=O)[nH]1 [Example 712, (R)-N-benzyl-1-[4-oxo-2-(propan-2-yl)-3,4-dihydropyrido[3,2-d]pyrimidin-6-yl]pyrrolidine-2-carboxamide]"
17,880,"CC(C)c1cc(=O)n2nc([C@H]3CCCN3C(=O)N3CCc4ccccc43)sc2n1 [Example 170, 2-[(R)-1-(2,3-dihydro-indole-1-carbonyl)pyrrolidin-2-yl]-7-(propan-2-yl)-5H-[1,3,4]thiadiazolo[3,2-a]pyrimidin-5-one]"
